Columns and labels:
Assay in all cases: cell viability (% survival relative to DMSO control); higher = less cytotoxic
Settings in all cases: 72 h
Mono-Mac-6 = system: Mono-Mac-6
Description: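 8x8 drug-combination matrices (0–5000 nM; rosiglitazone and lestaurtinib 0–1000 nM) were run in Mono-Mac-6 cells for 72 h with CellTiter-Glo read-out. Survival is normalised to DMSO and 10 µM bortezomib and clipped at 100%.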

BV-173 = system: BV-173
Description: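 8x8 drug-combination matrices (0–5000 nM; rosiglitazone and lestaurtinib 0–1000 nM) were run in BV-173 cells for 72 h with CellTiter-Glo read-out. Survival is normalised to DMSO and 10 µM bortezomib and clipped at 100%.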

MV4-11 = system: MV4-11
Description: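 8x8 drug-combination matrices (0–5000 nM; rosiglitazone and lestaurtinib 0–1000 nM) were run in MV4-11 cells for 72 h with CellTiter-Glo read-out. Survival is normalised to DMSO and 10 µM bortezomib and clipped at 100%.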

CCn1c(=Cc2cccc[n+]2CC)sc(=C2Sc3ccccc3N2C)c1=O [MKT 077] + CN(C)CCNC(=O)c1cccn2c(=O)c3cc4ccccc4cc3nc12 [Bmh-21]
cell viability [%]
Settings	drug1 concentration 5 nM	drug1 concentration 10 nM	drug1 concentration 50 nM	drug1 concentration 100 nM	drug1 concentration 500 nM	drug1 concentration 1000 nM	drug1 concentration 5000 nM
BV-173, drug2 concentration 5 nM	90.2	> 100	> 100	> 100	82.7	> 100	93.6
BV-173, drug2 concentration 10 nM	> 100	> 100	> 100	> 100	> 100	> 100	> 100
BV-173, drug2 concentration 50 nM	> 100	> 100	86	90.4	86.5	> 100	> 100
BV-173, drug2 concentration 100 nM	> 100	96.7	94.6	> 100	90.9	> 100	> 100
BV-173, drug2 concentration 500 nM	4.65	59.5	45.4	34.8	46.4	11.4	49.9
BV-173, drug2 concentration 1000 nM	0.56	28.5	1.73	66.5	1.33	2.69	6.83
BV-173, drug2 concentration 5000 nM	0.22	1.2	-0.65	0.37	-0.07	0.15	6.67
MV4-11, drug2 concentration 5 nM	89	81.4	> 100	87.9	90.8	> 100	78.7
MV4-11, drug2 concentration 10 nM	97.1	> 100	> 100	99.1	86	71	> 100
MV4-11, drug2 concentration 50 nM	86.2	86.7	88.4	> 100	84.5	> 100	> 100
MV4-11, drug2 concentration 100 nM	> 100	> 100	92.3	95.9	89.4	69.7	> 100
MV4-11, drug2 concentration 500 nM	70.6	88.8	78.3	87.8	> 100	86.7	84.5
MV4-11, drug2 concentration 1000 nM	87.2	46.6	> 100	89.9	74.8	60.5	64.2
MV4-11, drug2 concentration 5000 nM	31.1	35.2	31.4	63.2	25.9	24.1	37.5
Mono-Mac-6, drug2 concentration 5 nM	93.5	> 100	99.6	94.6	99.8	> 100	> 100
Mono-Mac-6, drug2 concentration 10 nM	> 100	> 100	> 100	90.1	> 100	78.2	> 100
Mono-Mac-6, drug2 concentration 50 nM	95.8	86.2	82.7	> 100	87.1	> 100	99
Mono-Mac-6, drug2 concentration 100 nM	91.6	> 100	> 100	99.7	> 100	> 100	> 100
Mono-Mac-6, drug2 concentration 500 nM	90.4	93.3	82.1	87.7	84.3	62.8	73.5
Mono-Mac-6, drug2 concentration 1000 nM	76.7	77.5	> 100	72.8	76.2	74.1	56.9
Mono-Mac-6, drug2 concentration 5000 nM	46	58.2	59.9	64.1	65.1	58.6	24.6

CN(CCOc1ccc(Cc2sc(O)nc2O)cc1)c1ccccn1 [Rosiglitazone] + c1cc(-c2cnn3cc(-c4ccc(OCCN5CCCCC5)cc4)cnc23)ccn1 [Dorsomorphin]
cell viability [%]
Settings	drug1 concentration 1 nM	drug1 concentration 5 nM	drug1 concentration 10 nM	drug1 concentration 50 nM	drug1 concentration 100 nM	drug1 concentration 500 nM	drug1 concentration 1000 nM
BV-173, drug2 concentration 5 nM	> 100	> 100	> 100	> 100	> 100	> 100	91.8
BV-173, drug2 concentration 10 nM	> 100	> 100	> 100	97.8	> 100	> 100	> 100
BV-173, drug2 concentration 50 nM	58.5	> 100	> 100	> 100	> 100	> 100	> 100
BV-173, drug2 concentration 100 nM	> 100	99.4	> 100	77.2	> 100	> 100	> 100
BV-173, drug2 concentration 500 nM	> 100	> 100	94.2	> 100	> 100	98.4	95.3
BV-173, drug2 concentration 1000 nM	91.7	> 100	62.5	> 100	> 100	> 100	> 100
BV-173, drug2 concentration 5000 nM	75.2	85	99.8	93.5	97.2	> 100	> 100
MV4-11, drug2 concentration 5 nM	96.5	> 100	> 100	98.4	> 100	> 100	> 100
MV4-11, drug2 concentration 10 nM	> 100	97.3	> 100	93.5	> 100	83.4	> 100
MV4-11, drug2 concentration 50 nM	> 100	98.2	> 100	> 100	84.9	> 100	> 100
MV4-11, drug2 concentration 100 nM	98.3	98.1	99.6	> 100	> 100	> 100	85.3
MV4-11, drug2 concentration 500 nM	99	45.9	46.8	45.7	49	13	43.8
MV4-11, drug2 concentration 1000 nM	26.1	20.7	21.6	23.8	7.5	23.4	16.8
MV4-11, drug2 concentration 5000 nM	2.86	4.57	4.91	7.17	6.15	6.58	5.32
Mono-Mac-6, drug2 concentration 5 nM	> 100	> 100	93	> 100	89	49.2	33.8
Mono-Mac-6, drug2 concentration 10 nM	> 100	85.1	84.3	84.5	76	36.1	32.6
Mono-Mac-6, drug2 concentration 50 nM	87.3	81.8	78.8	94.7	85.6	47.2	33.5
Mono-Mac-6, drug2 concentration 100 nM	68.8	> 100	84.1	74.5	81.5	28.7	31.1
Mono-Mac-6, drug2 concentration 500 nM	78.1	59.9	54.8	60.7	53.5	22.8	6.36
Mono-Mac-6, drug2 concentration 1000 nM	42.4	38.6	35.9	47.5	37.7	11.6	9.67
Mono-Mac-6, drug2 concentration 5000 nM	6.04	9.54	9.61	9.94	12.2	5.66	12.4
